Experimental data reported in US20110065783A1, “HYDROXYLATED NEBIVOLOL METABOLITES” (priority 2005, published 2011).

Experiments:
[1] = system: HUVECs isolated from White and Black American donors; experiment: Acute NO release from endothelial cells of White and Black American donors (electrochemical nanosensors); format: cell-based, human; details: for NO (nM), Black Donors, acute NO release / NO (nM), White Donors, acute NO release: acute drug treatment 1.0 μM, mean±S.D. (n=5); for NO (nM), Black Donors, acute NO release: HUVECs from Black American donors; for NO (nM), White Donors, acute NO release: HUVECs from White donors
Description: Values are mean±S.D. (n=5).
The 4′(R)-hydroxy-5-fluoro-l-nebivolol metabolite also exceeds the activity of nebivolol and even l-nebivolol by >50%. These findings indicate that hydroxy metabolites of nebivolol have distinct and highly reproducible effects on acute NO release in human endothelial cells.
In Table 1 and FIG. 7, the comparative effects of nebivolol, d-nebivolol, l-nebivolol and six stereoselective hydroxy metabolites on NO release are shown for cells harvested from white (open bars) and black American (solid bars) donors. The release of the NO from these endothelial cells was evaluated with electrochemical nanosensors placed within close proximity to the cell surface. […] The 4′(R)-hydroxy-5-fluoro-l-nebivolol metabolite (1689-64B) also exceeds the activity of l-nebivolol by >50%. The metabolite with the least activity is similar to nebivolol. These findings indicate that hydroxy metabolites of nebivolol have distinct and highly reproducible effects on acute NO release in human endothelial cells.

[2] = system: human umbilical vein endothelial cells (HUVEC); experiment: Peak NO release from HUVEC after acute treatment (porphyrinic probe); format: cell-based
Experimental: All measurements presented are recorded in vitro using a sensitive porphyrinic probe. NO release is measured directly from human umbilical vein endothelial cells (HUVEC). HUVEC cells were obtained from American Type Culture Collection (Manassas, Va.) and grown in Ham's F12K medium with 2 mM L-glutamine adjusted to contain 1.5 g/l sodium bicarbonate and supplemented with 0.1 mg/ml heparin and 0.03-0.05 mg/ml endothelial cell growth supplement (ECGS)=10% fetal bovine serum. The HUVEC cells were kept in an atmosphere of elevated CO2 concentration (5%). Nebivolol, its enantiomers, and nebivolol metabolites including the nebivolol glucuronides, 4-hydroxy-5′ phenol metabolite, 4-hydroxy-8′-phenol metabolite, 4-hydroxy, 5-hydroxy, 8-hydroxy metabolites, N-DAD, N-DACA and N-DAAA, are obtained from Mylan Laboratories (Morgantown, W. Va.)
All measurements of endothelial NO release are conducted in Hank's balance solution at 37° C. Cell wells are transferred to a Faraday cage and a porphyrinic sensor (diameter 0.5 mm) is positioned at a distance of 5±2 μm from the surface of the endothelial cells using an inverted microscope (Leica Microsystems, Wetzler, Germany) and a computer-assisted micromanipulator. The sensor operates with a three-electrode system: nanosensor (working electrode), saturated calomel electrode (reference electrode) and platinum wire (counter electrode, 0.5 mm diameter). The three electrodes are connected to a potentiostat/galvanostat PAR273. The baseline is stabilized after about 20 seconds. The test compounds are injected with a nanoinjector on to the surface of the cells following solubilization in buffer. The current proportional to the NO concentration is measured with the sensor, which operates in amperometric mode at a constant potential of 0.63V. Data are acquired with the use of an IBM computer with custom software and amperograms (current vs. time curves) and are recorded with a Guniry FAS1 Femtostat (Warminster, Pa.).
Nanosensors are prepared from carbon fibers. The size of the tip of carbon fiber is reduced from 6 μm to less than 1 μm by temperature controlled burning. The sensors are sensitized to NO by deposition of electrically conductive polymeric porphyrin and covered with a thin layer of Nafion. The prophyrinic microsensor has a response time of 0.1 ms at a micromolar NO concentration and 10 ms at the detection limit of 1 nM.
The nanosensor for NO is calibrated using saturated solution (concentration 1.82 mM verified with the coulometric method). Linear calibration curves are constructed for each sensor from […] before and after measurements of cell activity. The data are presented as the mean±SEM for each of the triplicate measurements. The data (calculation and plotting) are transferred to Microcal Origin Software (OriginLab Corp., Northampton, Mass.).
The HUVEC preparation is stable over the course of these experiments with the cells remaining viable in culture for >24 hours. Under non-stimulating conditions, basal levels of NO release are very low (<30 nM). Measurement of NO release as a function of treatment is conducted in individual endothelial cells. Multiple measurements of NO release can be conducted on single cells following a brief refractory period. For robust statistical analysis, separate cells are used for each concentration and type of drug used in these analyses.

human endothelial cells = experiment: Capacity for NO release in human endothelial cells following chronic administration; format: cell-based

Row | SMILES | NO (nM), Black Donors, acute NO release [1] [nM] | NO (nM), White Donors, acute NO release [1] [nM] | also measured
1 | O[C@H](CNC[C@@H](O)[C@H]1CCc2cc(F)ccc2O1)[C@@H]1CCc2cc(F)ccc2O1 [d-nebivolol, reference compound] | 87 ± 6 | 127 ± 17 | 
2 | O[C@@H](CNC[C@H](O)[C@H]1CCc2cc(F)ccc2O1)[C@@H]1CCc2cc(F)ccc2O1 [l-nebivolol, reference compound] | 192 ± 9 | 268 ± 12 | 
3 | OC(CNCC(O)C1C[C@H](O)c2cc(F)ccc2O1)C1CCc2cc(F)ccc2O1 (stereo partly drawn) [4(S)-Hydroxy-l-nebivolol] | 151 ± 8 | 204 ± 12 | 
4 | Oc1ccc2c(c1F)CCC(C(O)CNCC(O)C1CCc3cc(F)ccc3O1)O2 (stereo not drawn) [5-fluoro-6-hydroxy-l-nebivolol] | 212 ± 9 | 258 ± 20 | 
5 | OC1CC(C(O)CNCC(O)C2CCc3cc(F)ccc3O2)Oc2ccc(F)cc21 (stereo not drawn) [4-hydroxy nebivolol] |  |  | NO release compared with reference agents (in words) ([2]; 5 μM, acute, FIG. 4): approximates values measured with acetylcholine; peak NO release ([2]; 5 μM, acute, FIG. 4): exceeds 400 nM; NO release from human endothelial cells, concentration dependence (in words) ([2]; acute administration): increase NO release from human endothelial cell in concentration dependent fashion; EC50 ([2]; acute, concentration-response, FIG. 6): 500 nM; capacity for NO release following chronic administration (in words) (human endothelial cells): increase the capacity for NO release
6 | OC(CNCC(O)C1C[C@@H](O)c2cc(F)ccc2O1)C1CCc2cc(F)ccc2O1 (stereo partly drawn) [4′(R)-Hydroxy-l-nebivolol] | 194 ± 10 | 237 ± 11 | 
7 | Oc1cc2c(cc1F)OC(C(O)CNCC(O)C1C[C@H](O)c3cc(F)ccc3O1)CC2 (stereo partly drawn) [4 (S)-Hydroxy-7′-fluoro-6′-hydroxy-l-nebivolol] | 242 ± 12 | 272 ± 12 | 
8 | Oc1cc2c(cc1F)OC(C(O)CNCC(O)C1C[C@@H](O)c3cc(F)ccc3O1)CC2 (stereo partly drawn) [4′(R)-Hydroxy-7-fluoro-6-hydroxy-l-nebivolol] | 383 ± 18 | 476 ± 20 | NO release, black donors ([1]; acute treatment, endothelial cells from black donors): 383 ± 18 nmol/L; NO release, white donors ([1]; acute treatment, endothelial cells from white donors): 476 ± 20 nmol/L; increase in NO release as compared to nebivolol ([1]; acute treatment, white and black donors): nearly two-fold increase
9 | OC(CNCC(O)C1CCc2cc(F)ccc2O1)C1CCc2cc(F)ccc2O1 (racemic) [nebivolol] | 148 ± 10 | 218 ± 11 | NO peak release ([2]; 5 μM, acute, FIG. 4): ~225 nm
10 | Oc1ccc2c(c1F)CCC(C(O)CNCC(O)C1C[C@@H](O)c3cc(F)ccc3O1)O2 (stereo partly drawn) [4′(R)-Hydroxy-5-fluoro-6-hydroxy-l-nebivolol] | 316 ± 17 | 407 ± 27 | NO release activity in excess of l-nebivolol ([1]; acute treatment, compared with l-nebivolol (b247 also nebivolol)): > 50%
11 | Oc1c(F)ccc2c1CCC(C(O)CNCC(O)C1CCc3cc(F)ccc3O1)O2 (stereo not drawn) [5-hydroxy nebivolol] |  |  | peak NO release ([2]; 10 μM, acute, FIG. 3): approximately 220 nM
12 | Oc1cc(F)cc2c1OC(C(O)CNCC(O)C1CCc3cc(F)ccc3O1)CC2 (stereo not drawn) [8-hydroxy nebivolol] |  |  | peak NO release ([2]; 10 μM, acute, FIG. 3): approximately 220 nM
